Results: ChEMBL document CHEMBL4808237, “Ginkgonitroside, a new nitrophenyl glycoside and bioactive compounds from Ginkgo biloba leaves controlling adipocyte and osteoblast differentiation” (2021)

Assays:
[1] = Inhibition of adipogenesis in mouse C3H10T1/2 cells assessed as lipid droplet formation at 20 uM by Oil red O staining relative to control; assay type: functional, C3H 10T1/2; set-up: scale not given: the % may be the effect or the level left
C3H 10T1/2 = test: Induction of differentiation in mouse C3H10T1/2 cells assessed as increase […] by measuring ALP activity at 20 uM relative to control; assay type: functional

Structure (SMILES)	Activity [1] [%]	fold change (FC) (C3H 10T1/2)
O=[N+]([O-])c1ccc(O[C@@H]2O[C@H](CO)[C@@H](O)[C@H](O)[C@H]2O)cc1	17	–
Cc1cc([N+](=O)[O-])ccc1O[C@@H]1O[C@H](CO)[C@@H](O)[C@H](O)[C@H]1O	17	–
COC(=O)c1ccc(O[C@@H]2O[C@H](CO)[C@@H](O)[C@H](O)[C@H]2O)cc1	17	–
COc1cc([C@@H]2OC[C@@H]3[C@H]2CO[C@H]3c2ccc(O[C@@H]3O[C@H](CO)[C@@H](O)[C@H](O)[C@H]3O)c(OC)c2)ccc1O	–	1.3
